{
  "source": "patent US7888005B2",
  "about": "“Inhibitors of macromolecular activity” (priority 2003, dated 2011)",
  "key": {"[1]": {"system": "E. coli ribonuclease P RNA", "conditions": "literature (Vioque 1989; Mikkelsen et al.); cited from earlier work"}, "[2]": {"system": "E. coli cell (19R/PTZ) strain containing a single chromosomal copy of the wildtype rnpB gene", "experiment": "Top agar plate screen of extract dilutions, strain 19R/PTZ", "assay_type": "cell-based", "conditions": "strain 19R/PTZ (single chromosomal rnpB)", "protocol": "(§1) Methods. Different strains of E. coli-DH5alpha (DM46 and PTZ/19R) were streaked onto bacto MacConkey agar base plate containing ampicillin at 50 μg/ml. Then a fresh single colony was grown on 5 ml NZY Ap (50 μg/ml) broth at 37° C. overnight. The next day a frozen cell from the above cells was made. 1 ml of a freshly saturated culture was added to a microcentrifuge tube containing 1 ml DMSO (7%). These cells were stored at −80° C. Cells from frozen stocks were streaked out again and one colony from each plate was transferred to 1 ml NZY(amp, 50 μg/ml) broth. The tubes were shaken at 37° C. overnight.\n(§2) Top agar (1% tryptone, 0.8% NaCl, 0.7% agar) was used to distribute cells in a thin layer over the surface of a plate. 100 μl of fresh cell was mixed with 2.5 ml top agar. The mixture was then poured into NZY AP (50 μg/ml). Microtiter dishes containing 96-well, were used to prepare serial dilutions in 10% DMSO (1:5, 1:25, 1:125, 1:625) of extracts. A multi-channel pipeting device was used to add 5 μl extract to the top agar plate. Agar plates containing extract were incubated overnight at 37° C. At the end of incubation, inhibition appeared as clear zone around the place that extract was added. Positive extracts from the initial screens were analyzed further. […]"}, "[3]": {"system": "strain DM46, which contains the rnpB gene cloned on a high copy plasmid", "experiment": "Top agar plate screen of extract dilutions, strain DM46", "assay_type": "cell-based, E. coli", "conditions": "strain DM46 (multicopy rnpB)", "protocol": "as §1, §2"}},
  "data": [
    {"compound": "NC[C@@H]1O[C@H](O[C@H]2[C@@H](O)[C@H](O[C@@H]3[C@@H](O)[C@H](N)C[C@H](N)[C@H]3O[C@H]3O[C@H](CN)[C@@H](O)[C@H](O)[C@H]3N)O[C@@H]2CO)[C@H](N)[C@@H](O)[C@@H]1O", "note": "[Neomycin B]", "values": [
      {"measurement": "Inhibition of ribonuclease P RNA reaction", "setting": "[1]", "value": "micromolar concentrations"}
    ]},
    {"compound": "COc1ccc(C[C@H](N)C(=O)N[C@H]2[C@@H](O)[C@H](n3cnc4c(N(C)C)ncnc43)O[C@@H]2CO)cc1", "note": "[puromycin]", "values": [
      {"measurement": "Inhibition of growth, in words", "setting": "[2]", "value": "inhibits the growth of both strains"},
      {"measurement": "Inhibition of ribonuclease P RNA reaction", "setting": "[1]", "value": "inhibits the catalytic reaction of ribonuclease P RNA"},
      {"measurement": "Inhibition of growth, in words", "setting": "[3]", "value": "inhibits the growth of both strains"}
    ]}
  ]
}
